Test results as given in US20190389850A1, “COMPOUNDS” (GLAXOSMITHKLINE INTELLECTUAL PROPERTY DEVELOPMENT LIMITED, priority 2017, published 2019).
Where “and” joins values, the source holds several entries; their conditions need not be identical. Equal values may be shown once.

Tests used:
[1] = biological target: T1, recombinant full length LRRK2 protein (LRRK2 Ser935 phosphorylation) (Homo sapiens, UniProt Q5S007); assay: Recombinant cellular LRRK2 AlphaScreen assay; assay type: cell-based; conditions: SH-SY5Y cells over-expressing recombinant full length LRRK2, 60 minutes, read-out: pIC50 in the recombinant cellular LRRK2 AlphaScreen assay (converted)
T1 construct: A BacMam virus expressing full length recombinant LRRK2 was purchased from Invitrogen; host or cells: SH-SY5Y human neuroblastoma cells transduced with BacMam LRRK2 virus
T1 sequence (Q5S007 whole entry): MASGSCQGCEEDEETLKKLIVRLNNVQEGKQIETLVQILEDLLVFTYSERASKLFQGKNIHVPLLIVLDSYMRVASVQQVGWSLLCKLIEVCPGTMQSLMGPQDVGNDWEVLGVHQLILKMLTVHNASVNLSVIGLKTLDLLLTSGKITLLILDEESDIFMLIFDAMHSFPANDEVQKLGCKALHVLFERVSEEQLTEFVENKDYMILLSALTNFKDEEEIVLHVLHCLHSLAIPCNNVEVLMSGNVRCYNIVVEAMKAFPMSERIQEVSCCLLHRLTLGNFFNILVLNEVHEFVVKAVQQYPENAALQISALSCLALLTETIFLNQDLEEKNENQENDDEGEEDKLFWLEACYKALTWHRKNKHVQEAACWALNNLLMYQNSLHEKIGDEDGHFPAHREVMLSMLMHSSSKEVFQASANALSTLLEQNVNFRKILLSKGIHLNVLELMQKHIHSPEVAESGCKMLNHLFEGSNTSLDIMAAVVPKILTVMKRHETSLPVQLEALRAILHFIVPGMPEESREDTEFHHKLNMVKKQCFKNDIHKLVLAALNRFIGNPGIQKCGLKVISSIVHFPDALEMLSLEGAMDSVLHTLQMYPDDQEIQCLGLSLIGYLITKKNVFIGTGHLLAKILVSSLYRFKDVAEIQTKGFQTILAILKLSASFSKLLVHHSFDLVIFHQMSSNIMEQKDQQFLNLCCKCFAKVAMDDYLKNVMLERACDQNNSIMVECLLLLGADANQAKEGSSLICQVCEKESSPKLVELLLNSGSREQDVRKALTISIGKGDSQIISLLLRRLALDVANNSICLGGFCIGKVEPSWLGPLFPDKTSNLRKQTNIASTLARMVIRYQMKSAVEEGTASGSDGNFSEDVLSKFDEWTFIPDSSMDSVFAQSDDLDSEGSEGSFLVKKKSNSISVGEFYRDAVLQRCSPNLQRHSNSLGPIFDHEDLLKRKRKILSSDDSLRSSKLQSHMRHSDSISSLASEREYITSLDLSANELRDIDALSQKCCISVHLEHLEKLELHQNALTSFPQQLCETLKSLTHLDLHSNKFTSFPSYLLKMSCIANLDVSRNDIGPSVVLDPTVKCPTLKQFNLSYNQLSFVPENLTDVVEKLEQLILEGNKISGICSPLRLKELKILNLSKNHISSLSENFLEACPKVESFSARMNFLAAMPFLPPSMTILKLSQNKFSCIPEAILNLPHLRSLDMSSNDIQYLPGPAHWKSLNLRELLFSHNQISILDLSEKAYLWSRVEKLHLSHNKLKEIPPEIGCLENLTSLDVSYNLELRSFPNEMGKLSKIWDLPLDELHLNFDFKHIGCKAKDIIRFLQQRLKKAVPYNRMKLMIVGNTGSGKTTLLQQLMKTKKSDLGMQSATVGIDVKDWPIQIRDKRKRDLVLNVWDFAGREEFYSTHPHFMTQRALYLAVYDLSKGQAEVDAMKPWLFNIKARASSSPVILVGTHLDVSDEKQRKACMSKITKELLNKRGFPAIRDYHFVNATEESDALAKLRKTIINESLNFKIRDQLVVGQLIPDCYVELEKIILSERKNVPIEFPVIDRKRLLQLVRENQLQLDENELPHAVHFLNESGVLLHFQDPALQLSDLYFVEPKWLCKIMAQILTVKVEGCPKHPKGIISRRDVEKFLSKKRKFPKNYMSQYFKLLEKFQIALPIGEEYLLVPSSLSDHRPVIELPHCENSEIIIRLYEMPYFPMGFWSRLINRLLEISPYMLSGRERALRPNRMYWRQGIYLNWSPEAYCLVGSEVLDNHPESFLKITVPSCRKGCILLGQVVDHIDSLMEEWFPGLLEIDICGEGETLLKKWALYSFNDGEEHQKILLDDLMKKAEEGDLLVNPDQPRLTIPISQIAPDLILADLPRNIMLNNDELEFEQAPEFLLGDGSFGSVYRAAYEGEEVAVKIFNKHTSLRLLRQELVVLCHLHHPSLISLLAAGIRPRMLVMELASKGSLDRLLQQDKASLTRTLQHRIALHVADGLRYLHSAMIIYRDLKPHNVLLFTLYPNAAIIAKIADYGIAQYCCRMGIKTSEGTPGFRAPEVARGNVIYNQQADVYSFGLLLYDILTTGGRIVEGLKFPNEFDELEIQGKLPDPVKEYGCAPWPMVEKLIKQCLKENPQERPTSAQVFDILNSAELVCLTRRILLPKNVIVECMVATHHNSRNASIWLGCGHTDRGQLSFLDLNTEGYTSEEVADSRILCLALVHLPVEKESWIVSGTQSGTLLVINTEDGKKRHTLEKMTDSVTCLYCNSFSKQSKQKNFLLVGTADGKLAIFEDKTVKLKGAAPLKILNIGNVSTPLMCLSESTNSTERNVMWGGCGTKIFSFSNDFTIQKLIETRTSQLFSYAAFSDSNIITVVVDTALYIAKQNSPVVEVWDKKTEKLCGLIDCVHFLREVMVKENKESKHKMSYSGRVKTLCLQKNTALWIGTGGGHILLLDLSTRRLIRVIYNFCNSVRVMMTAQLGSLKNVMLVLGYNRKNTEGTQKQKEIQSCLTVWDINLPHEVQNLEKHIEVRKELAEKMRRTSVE
Text: b. Recombinant Cellular LRRK2 AlphaScreen Assay
To determine the activity of compounds against LRRK2 kinase activity in cells, the observed LRRK2 kinase-dependent modulation of LRRK2 Ser 935 phosphorylation (Dzamko et al., 2010, Biochem. J. 430: 405-413) was utilized to develop a quantitative 384 well plate-based immunoassay of LRRK2 Ser935 phosphorylation in the human neuroblastoma cell line SH-SY5Y, engineered to over-express recombinant full length LRRK2 protein.
A BacMam virus expressing full length recombinant LRRK2 was purchased from Invitrogen and amplified by inoculation of SF-9 cells at MOI 0.3 for 4-5 days in Sf-900 III SFM medium supplemented with 3% fetal bovine serum. Infected cell cultures were then centrifuged at 2000 g for 20 minutes, viral supernatant titer determined by anti-gp64 plaque assay and stored at 4° C.
Affinity-purified anti-phospho LRRK2 Ser935 sheep polyclonal antibody (Dzamko et al., 2010, Biochem. J. 430: 405-413) was biotinylated by standard methods (PerkinElmer). Anti-LRRK2 rabbit polyclonal antibody was purchased from Novus Biologicals. AlphaScreen Protein A IgG Kit (including acceptor and donor beads) was purchased from Perkin Elmer.
SH-SY5Y cells were grown in DMEM/F12 medium with 10% dialysed fetal bovine serum and harvested by treatment with 0.5% trypsin-EDTA for 5 minutes at 37° C. followed by centrifugation at 1000 rpm for 4 minutes. The cell pellet was resuspended in Opti-MEM reduced serum media (Invitrogen) at 200,000 cells/ml and mixed with the BacMam LRRK2 virus at MOI=50. 50 μl cell solutions were then dispensed to each well of a 384-well plate and incubated at 37° C., 5% CO2 for 24 hours.
Serial dilutions of test compounds were prepared in Opti-MEM reduced serum media (Invitrogen) and 5.6 ul transferred from compound plate to cell assay plate to achieve a top final assay concentration of 10 uM. DMSO was used in certain wells as controls. Cells were incubated at 37° C., 5% CO2 for 60 minutes. The medium was then removed and cells lysed by addition of 20 ul cell lysis buffer (Cell Signaling Technology) and incubation at 4° C. for 20 minutes. 10 ul of antibody/acceptor bead mix [(1/1000 biotinylated-pS935 LRRK2 antibody, 1/1000 total-LRRK2 antibody, 1/100 Acceptor beads in AlphaScreen detection buffer (25 mM Hepes (pH 7.4), 0.5% Triton X-100, 1 mg/ml Dextran 500 and 0.1% BSA)] was then added to each well and plates incubated for 2 hours at ambient temperature in the dark. 10 μl of donor beads solution (1/33.3 donor beads in AlphaScreen detection buffer) was then added to each well. Following incubation for a further 2 hours at ambient temperature in the dark, plates were read on an EnVision™ plate reader at emission 520-620 nm with excitation 680 nm. Dose response curve data was based on sigmoidal dose-response model.

[2] = biological target: T2, Full length G2019 human LRRK2 (Homo sapiens, UniProt Q5S007); assay: Full length G2019 human LRRK2 Inhibition Mass Spectrometry assay; assay type: biochemical; conditions: LRRKtide to phospho-LRRKtide conversion, RapidFire mass spectrometry; 25 nM LRRK2, 2 mM ATP; read-out: pIC50 in the full length G2019 human LRRK2 Inhibition Mass Spectrometry assay (converted)
T2 construct: purified recombinant Full length Flag-LRRK2; made in house; host or cells: HEK293 6E cells transduced with BacMam virus (virus made in Sf9)
T2 sequence (Q5S007 with tags, fused parts or gaps R50H): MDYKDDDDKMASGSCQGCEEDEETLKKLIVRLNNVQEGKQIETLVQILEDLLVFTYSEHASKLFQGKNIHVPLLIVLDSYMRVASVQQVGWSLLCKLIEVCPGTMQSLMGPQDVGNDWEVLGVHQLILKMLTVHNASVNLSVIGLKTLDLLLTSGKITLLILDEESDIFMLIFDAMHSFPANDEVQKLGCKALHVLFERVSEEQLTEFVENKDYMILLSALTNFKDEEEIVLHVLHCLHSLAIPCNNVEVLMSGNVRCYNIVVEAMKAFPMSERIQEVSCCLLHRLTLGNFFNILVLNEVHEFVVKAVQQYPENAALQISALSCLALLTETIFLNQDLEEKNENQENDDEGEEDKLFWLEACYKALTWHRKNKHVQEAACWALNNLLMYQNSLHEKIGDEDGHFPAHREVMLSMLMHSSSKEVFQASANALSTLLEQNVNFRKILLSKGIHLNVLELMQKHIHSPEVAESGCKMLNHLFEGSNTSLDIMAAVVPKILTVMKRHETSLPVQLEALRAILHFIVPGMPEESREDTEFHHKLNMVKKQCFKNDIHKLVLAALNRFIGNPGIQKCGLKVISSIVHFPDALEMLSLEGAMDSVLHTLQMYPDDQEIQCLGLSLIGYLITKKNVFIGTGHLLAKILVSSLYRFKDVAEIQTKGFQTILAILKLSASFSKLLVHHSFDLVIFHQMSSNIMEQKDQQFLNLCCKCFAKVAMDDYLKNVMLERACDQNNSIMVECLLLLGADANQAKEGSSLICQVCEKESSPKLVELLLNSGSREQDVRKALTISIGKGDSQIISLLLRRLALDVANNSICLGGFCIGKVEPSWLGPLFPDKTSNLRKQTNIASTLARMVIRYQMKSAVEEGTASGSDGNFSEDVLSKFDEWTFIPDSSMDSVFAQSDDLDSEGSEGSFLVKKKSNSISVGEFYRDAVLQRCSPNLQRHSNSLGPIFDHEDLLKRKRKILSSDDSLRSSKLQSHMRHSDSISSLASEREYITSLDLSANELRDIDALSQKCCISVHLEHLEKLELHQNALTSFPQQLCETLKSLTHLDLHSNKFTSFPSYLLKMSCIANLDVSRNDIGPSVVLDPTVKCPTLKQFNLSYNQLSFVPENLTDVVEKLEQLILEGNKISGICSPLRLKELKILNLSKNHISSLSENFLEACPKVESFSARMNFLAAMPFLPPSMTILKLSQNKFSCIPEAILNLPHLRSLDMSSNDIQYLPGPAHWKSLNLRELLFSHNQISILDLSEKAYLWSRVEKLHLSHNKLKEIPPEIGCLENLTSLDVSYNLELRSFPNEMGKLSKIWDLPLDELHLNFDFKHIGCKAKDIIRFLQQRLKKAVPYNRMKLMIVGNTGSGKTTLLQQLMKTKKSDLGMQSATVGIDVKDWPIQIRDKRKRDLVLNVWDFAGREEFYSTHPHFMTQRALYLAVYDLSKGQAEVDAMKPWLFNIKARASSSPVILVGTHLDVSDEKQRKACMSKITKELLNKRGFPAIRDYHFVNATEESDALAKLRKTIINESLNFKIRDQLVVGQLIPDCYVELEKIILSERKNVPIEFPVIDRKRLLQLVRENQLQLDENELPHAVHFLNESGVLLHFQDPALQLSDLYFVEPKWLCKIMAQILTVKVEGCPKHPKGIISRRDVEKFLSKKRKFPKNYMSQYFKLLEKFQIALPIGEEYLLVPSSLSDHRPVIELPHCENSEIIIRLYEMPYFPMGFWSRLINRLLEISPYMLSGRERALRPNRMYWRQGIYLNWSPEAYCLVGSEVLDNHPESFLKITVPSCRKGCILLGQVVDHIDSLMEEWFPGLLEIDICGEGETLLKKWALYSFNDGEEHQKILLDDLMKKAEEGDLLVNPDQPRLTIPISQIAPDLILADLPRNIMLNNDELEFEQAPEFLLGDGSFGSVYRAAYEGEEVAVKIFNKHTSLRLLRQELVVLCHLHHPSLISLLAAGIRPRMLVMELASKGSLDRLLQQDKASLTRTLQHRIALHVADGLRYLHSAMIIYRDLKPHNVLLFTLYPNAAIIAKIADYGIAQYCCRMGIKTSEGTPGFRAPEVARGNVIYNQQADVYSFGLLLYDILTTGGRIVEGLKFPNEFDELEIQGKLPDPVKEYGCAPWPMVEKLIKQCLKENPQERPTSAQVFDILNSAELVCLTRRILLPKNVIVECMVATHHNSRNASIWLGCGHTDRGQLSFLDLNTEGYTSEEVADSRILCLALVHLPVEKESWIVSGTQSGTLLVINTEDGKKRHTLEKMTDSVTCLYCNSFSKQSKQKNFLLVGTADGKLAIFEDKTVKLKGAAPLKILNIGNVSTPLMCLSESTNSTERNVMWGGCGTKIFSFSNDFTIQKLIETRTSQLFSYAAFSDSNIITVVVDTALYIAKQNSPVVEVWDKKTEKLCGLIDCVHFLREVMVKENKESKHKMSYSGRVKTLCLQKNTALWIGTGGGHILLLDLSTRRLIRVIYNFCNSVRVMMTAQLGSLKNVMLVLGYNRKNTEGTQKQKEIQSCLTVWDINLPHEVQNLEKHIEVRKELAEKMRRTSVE
Experimental: a. Full Length G2019 Human LRRK2 Inhibition Mass Spectrometry Assay
This assay for Leucine Rich Repeat Kinase 2 (LRRK2) inhibition is based on the direct measurement of the peptide ‘LRRKtide’ (LRRKtide: RLGRDKYKT*LRQIRQ and “*” refers to the site of phosphorylation.) and phosphorylated ‘LRRKtide’ using a high throughput RapidFire mass spectrometry assay. Inhibitors are compounds that reduce the conversion of LRRKtide to phospho-LRRKtide.
• 1) A 10 mM test compound was dissolved in 100% DMSO and serially diluted 1 in 4. 100 nL of this dilution series was then added to a 384 well, v bottom polypropylene plate, excluding columns 6 and 18. 100 nL of DMSO was added to columns 6 and 18 as controls wells. […] Test plates were then analysed on an Agilent RapidFire High Throughput solid phase extraction system coupled to AB Sciex API 4000 triple quadropole mass spectrometer with the following setting: RapidFire settings: • Sip Height=2 mm, Aspirate=500 ms, Load time=3000 ms, Elution time=3000 ms, Requilibration=500 ms. • Flow rates: pump 1=1.5 mL/min, pump 2 1.25 mL/min pump 3=0.8 mL/min Mass Spectrometer Settings: • LRRKtide Detection settings: Q1 mass 644.8 Da, Q3 mass 638.8, declustering potential 76 volts, collision energy 37 volts, CXP 34 volts. • Phospho-LRRKtide Detection settings: Q1 mass 671.4 Da, Q3 mass 638.8, Declustering potential 76 volts, Collision energy 37 volts, CXP 34 volts. • A C4 cartridge was used and running buffers were: A (aqueous) 0.1% formic acid in water B (organic) 0.1% formic acid, 80% acetonitrile, 20% water. • Collision gas: 12, Curtain gas: 25, Ion Source gas (1): 60, Ion Source gas (2): 60, Ion Spray Voltage: 5500, Temperature: 600, Interface Heater: ON. • Resolution Q1: low, Resolution Q3: low. • 6) Data was analysed using ActivityBase software (IDBS). A percent conversion from LRRKtide to Phospho-LRRKtide was calculated using the following formula: […]

SMILES | IC50 [1] | IC50 [2]
COc1nc(N2CCO[C@H](CO)C2)cc(-n2ncc3cc(C)c(C4CCN(C5(C)COC5)CC4)cc32)n1 [Example A-3, (S)-(4-(2-Methoxy-6-(5-methyl-6-(1-(3-methyloxetan-3-yl)piperidin-4-yl)-1H-indazol-1-yl)pyrimidin-4-yl)morpholin-2-yl)methanol] | ≤ 31.6 nM and 12.6 nM | –
Cc1nc(N2CCO[C@@H](CO)C2)cc(-n2ncc3cc(C)c(C4CCN(C5(C)COC5)CC4)cc32)n1 [Example A-1, (R)-(4-(2-Methyl-6-(5-methyl-6-(1-(3-methyloxetan-3-yl)piperidin-4-yl)-1H-indazol-1-yl)pyrimidin-4-yl)morpholin-2-yl)methanol] | 200 nM | ≤ 100 nM
Cc1nc(N2CC(C)OC(CO)C2)cc(-n2ncc3cc(C)c(C4CCN(C5COC5)CC4)cc32)n1 (single isomer, unassigned) [Example B-1, (6-Methyl-4-(2-methyl-6-(5-methyl-6-(1-(oxetan-3-yl)piperidin-4-yl)-1H-indazol-1-yl)pyrimidin-4-yl)morpholin-2-yl)methanol] | 50.1 nM | –
Cc1nc(N2CCO[C@H](CO)C2)cc(-n2ncc3cc(C)c(C4CCN(C5(C)COC5)CC4)cc32)n1 [Example A-2, (S)-(4-(2-Methyl-6-(5-methyl-6-(1-(3-methyloxetan-3-yl)piperidin-4-yl)-1H-indazol-1-yl)pyrimidin-4-yl)morpholin-2-yl)methanol] | – | ≤ 100 nM
COc1nc(N2CCO[C@@H](CO)C2)cc(-n2ncc3cc(C)c(C4CCN(C5(C)COC5)CC4)cc32)n1 [Example A-4, (R)-(4-(2-Methoxy-6-(5-methyl-6-(l-(3-methyloxetan-3-yl)piperidin-4-yl)-1H-indazol-1-yl)pyrimidin-4-yl)morpholin-2-yl)methanol] | ≤ 31.6 nM | –

Other lines, results leading:

IC50 [1] | IC50 [2] | SMILES
100 nM | – | Cc1nc(N2CCOC(CCO)C2)cc(-n2ncc3cc(C)c(C4CCN(C5COC5)CC4)cc32)n1 (single isomer, unassigned) [Example B-8, 2-(4-(2-methyl-6-(5-methyl-6-(1-(oxetan-3-yl)piperidin-4-yl)-1H-indazol-1-yl)pyrimidin-4-yl)morpholin-2-yl)ethanol]
79.4 nM | ≤ 100 nM | Cc1nc(N2CCOC(CCO)C2)cc(-n2ncc3cc(C)c(C4CCN(C5COC5)CC4)cc32)n1 (single isomer, unassigned) [Example B-7, 2-(4-(2-methyl-6-(5-methyl-6-(1-(oxetan-3-yl)piperidin-4-yl)-1H-indazol-1-yl)pyrimidin-4-yl)morpholin-2-yl)ethanol]
79.4 nM | – | Cc1nc(N2CC(C)OC(CO)C2)cc(-n2ncc3cc(C)c(C4CCN(C5COC5)CC4)cc32)n1 (single isomer, unassigned) [Example B-2, (6-Methyl-4-(2-methyl-6-(5-methyl-6-(1-(oxetan-3-yl)piperidin-4-yl)-1H-indazol-1-yl)pyrimidin-4-yl)morpholin-2-yl)methanol]
63.1 nM | – | Cc1nc(N2CC(CO)OCC2C)cc(-n2ncc3cc(C)c(C4CCN(C5COC5)CC4)cc32)n1 (single isomer, unassigned) [Example B-6, (5-methyl-4-(2-methyl-6-(5-methyl-6-(1-(oxetan-3-yl)piperidin-4-yl)-1H-indazol-1-yl)pyrimidin-4-yl)morpholin-2-yl)methanol]
50.1 nM | – | Cc1nc(N2CC(C)OC(CO)C2)cc(-n2ncc3cc(C)c(C4CCN(C5COC5)CC4)cc32)n1 (single isomer, unassigned) [Example B-3, (6-Methyl-4-(2-methyl-6-(5-methyl-6-(1-(oxetan-3-yl)piperidin-4-yl)-1H-indazol-1-yl)pyrimidin-4-yl)morpholin-2-yl)methanol]
316 nM | – | Cc1nc(N2CC(C)OC(CO)C2)cc(-n2ncc3cc(C)c(C4CCN(C5COC5)CC4)cc32)n1 (single isomer, unassigned) [Example B-4, (6-Methyl-4-(2-methyl-6-(5-methyl-6-(1-(oxetan-3-yl)piperidin-4-yl)-1H-indazol-1-yl)pyrimidin-4-yl)morpholin-2-yl)methanol]
